# From PubChem BioAssay AID2060360 (Molecular Pharmacology Branch, DTP, NCI, 2025)
# pIC50: −log10 of the molar value.
# Tested on: 282377-053-R-J1-PDC tumor spheroids, viability
# Assay: Anticancer human tumor 282377-053-R-J1-PDC patient-derived colon adenocarcinoma cell line growth inhibition [TAK]
# Conditions: spheroids with HUVEC and MSC; for pIC50: curve of first compound; for viability, T/C: stronger effect = lower value
# Text: Combinatorial screen of targeted agents with TAK-243 and ipatasertib in multi-cell type tumor spheroids
# A high-throughput screen of multi-cell type tumor spheroids was designed to identify active combinations of targeted small molecules and TAK-243 or ipatasertib. Complex spheroids include a stromal component modeled by human endothelial cells (HUVEC) and fibroblasts modeled by human mesenchymal stem cells (MSCs). The concentration ranges selected for each drug and investigational agent were based upon clinically achievable concentrations if the clinical Cmax of the agent was known.
# Compounds. The drugs and investigational agents: TAK-243 (785004), ipatasertib (767898), everolimus (733504), selumetinib (741078), bortezomib (756655), trametinib (758246), ixazomib (758254), vemurafenib (761431), dabrafenib (764134), sapanisertib (764658), alpelisib (765974), and copanlisib (816437), were obtained from the National Cancer Institute (NCI) Developmental Therapeutics Program Chemical Repository. The FDA-approved anticancer drug set is available from the NCI Developmental Therapeutics Program. […] The stock solutions were prepared in dimethyl sulfoxide (DMSO, Sigma-Aldrich, St. Louis, MO, cat. D2650) at 800-fold the tested concentration and stored at -70 degrees C prior to their use. All drugs and investigational agents were tested over a range starting from a high concentration at or near the clinical Cmax and decreasing in half-log increments. If the clinical Cmax for an agent had not been determined, the highest concentration tested was 10 microM.
# NCI60 Cell Culture. NCI60 cell lines were obtained from the NCI Developmental Therapeutics Program Tumor Repository. For each lot of cells, the Repository performed Applied Biosystems AmpFLSTR Identifiler testing with PCR amplification to confirm consistency with the published Identifier STR profile for each cell line. Cells were kept in continuous culture for no more than 20 passages. The optimal seeding densities for each of the cell lines at each time point assessed were determined prior to performing the concentration response studies. Briefly, the NCI60 human tumor lines were grown as monolayers in RPMI 1640 medium supplemented with 10% FBS and 2 mmol/L L-glutamine.
# An additional 2 lines were from the NCI60 cell line panel including melanomas, MALME-3M and SK-MEL-2. Pooled donor human umbilical vein endothelial cells (HUVEC, Lonza, cat. CC-2519) and human mesenchymal stem cells (hMSC, Lonza, cat. PT-2501) were purchased from Lonza (Walkersville, MD).
# PDMR cell lines were grown in complete medium (DC medium): Dulbecco's modified Eagle's medium (DMEM)/F12 supplemented with 5% fetal bovine serum (FBS), 2 mM L-glutamine, 100 U/mL penicillin and 100 µg/ml streptomycin, 0.4 µg/ml hydrocortisone, 10 ng/ml epidermal growth factor (EGF) recombinant human protein, 24 µg/mL adenine, and 0.1 mg/mL primocin. During culture from frozen stock vials, PDMR cells were cultured in the same medium containing 10 µM Y-27632 (see Table 3). The PDCs were cultured in complete DMEM/F12 media without 10 microM Y-27632 dihydrochloride for at least two passages prior to the screen. The pooled donor HUVEC and hMSC were cultured in endothelial cell growth medium 2 (PromoCell, Heidelberg, Germany, cat. C-22011) and mesenchymal stem cell growth medium 2 (PromoCell, cat. C-28009), respectively. For all experiments, HUVEC and hMSC were used at passages </=5.
# For the pre-screen, cell seeding densities were determined from a titration spanning the range from 5,000 to 313 cells per well. The mct-spheroids including 60% malignant cells, 25% HUVEC and 15% MSC dispensed as a mixture into U-bottom Ultra-Low Attachment 384-well plates (Corning, NY)
# High-throughput Drug Combination Screening.
# Prior to their inoculation into 384-well plates, malignant cells, HUVEC, and hMSC were removed from T flasks using TrypLE express (Thermo Fisher Scientific, cat. 12605036) and harvested by centrifugation for 5 min at 233 x g. […]
# 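Further: spheroids exposed to drugs for seven days before readout.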
structure (smiles),measurement,setting,value
Cn1cnc2c(F)c(Nc3ccc(Br)cc3Cl)c(C(=O)NOCCO)cc21 + CC(C)NCC(C(=O)N1CCN(c2ncnc3c2C(C)CC3O)CC1)c1ccc(Cl)cc1,pIC50,second compound 0.3 µM,6.40
same,pIC50,second compound 0.949 µM,6.72
same,pIC50,second compound 3 µM,6.79
same,pIC50,second compound 9.49 µM,6.72
same,pIC50,second compound 30 µM,7.18
same,"viability, T/C","second compound 0.3 µM, first compound 0.00949 µM",81.5%
same,"viability, T/C","second compound 0.3 µM, first compound 0.03 µM",74.4%
same,"viability, T/C","second compound 0.3 µM, first compound 0.0949 µM",63.6%
same,"viability, T/C","second compound 0.3 µM, first compound 0.3 µM",55.6%
same,"viability, T/C","second compound 0.3 µM, first compound 0.949 µM",38.4%
same,"viability, T/C","second compound 0.3 µM, first compound 3 µM",17.4%
same,"viability, T/C","second compound 0.949 µM, first compound 0.00949 µM",82%
same,"viability, T/C","second compound 0.949 µM, first compound 0.03 µM",70.9%
same,"viability, T/C","second compound 0.949 µM, first compound 0.0949 µM",56.9%
same,"viability, T/C","second compound 0.949 µM, first compound 0.3 µM",45.6%
same,"viability, T/C","second compound 0.949 µM, first compound 0.949 µM",31.8%
same,"viability, T/C","second compound 0.949 µM, first compound 3 µM",18.9%
same,"viability, T/C","second compound 3 µM, first compound 0.00949 µM",77.1%
same,"viability, T/C","second compound 3 µM, first compound 0.03 µM",70.5%
same,"viability, T/C","second compound 3 µM, first compound 0.0949 µM",54.8%
same,"viability, T/C","second compound 3 µM, first compound 0.3 µM",42.1%
same,"viability, T/C","second compound 3 µM, first compound 0.949 µM",31%
same,"viability, T/C","second compound 3 µM, first compound 3 µM",18.4%
same,"viability, T/C","second compound 9.49 µM, first compound 0.00949 µM",73.4%
same,"viability, T/C","second compound 9.49 µM, first compound 0.03 µM",72.2%
same,"viability, T/C","second compound 9.49 µM, first compound 0.0949 µM",57%
same,"viability, T/C","second compound 9.49 µM, first compound 0.3 µM",44.3%
same,"viability, T/C","second compound 9.49 µM, first compound 0.949 µM",30.1%
same,"viability, T/C","second compound 9.49 µM, first compound 3 µM",18.8%
same,"viability, T/C","second compound 30 µM, first compound 0.00949 µM",61.5%
same,"viability, T/C","second compound 30 µM, first compound 0.03 µM",59.8%
same,"viability, T/C","second compound 30 µM, first compound 0.0949 µM",45.2%
same,"viability, T/C","second compound 30 µM, first compound 0.3 µM",34.2%
same,"viability, T/C","second compound 30 µM, first compound 0.949 µM",26.4%
same,"viability, T/C","second compound 30 µM, first compound 3 µM",13.2%
CC(C)(C)c1nc(-c2cccc(NS(=O)(=O)c3c(F)cccc3F)c2F)c(-c2ccnc(N)n2)s1 + CC(C)NCC(C(=O)N1CCN(c2ncnc3c2C(C)CC3O)CC1)c1ccc(Cl)cc1,pIC50,second compound 0.3 µM,< 5.00
same,pIC50,second compound 0.949 µM,< 5.00
same,pIC50,second compound 3 µM,< 5.00
same,pIC50,second compound 9.49 µM,< 5.00
same,pIC50,second compound 30 µM,6.36
same,"viability, T/C","second compound 0.3 µM, first compound 0.0316 µM",83.5%
same,"viability, T/C","second compound 0.3 µM, first compound 0.1 µM",81%
same,"viability, T/C","second compound 0.3 µM, first compound 0.316 µM",79.3%
same,"viability, T/C","second compound 0.3 µM, first compound 1 µM",72%
same,"viability, T/C","second compound 0.3 µM, first compound 3.16 µM",71.3%
same,"viability, T/C","second compound 0.3 µM, first compound 10 µM",63.7%
same,"viability, T/C","second compound 0.949 µM, first compound 0.0316 µM",78.4%
same,"viability, T/C","second compound 0.949 µM, first compound 0.1 µM",79.7%
same,"viability, T/C","second compound 0.949 µM, first compound 0.316 µM",71.9%
same,"viability, T/C","second compound 0.949 µM, first compound 1 µM",66.5%
same,"viability, T/C","second compound 0.949 µM, first compound 3.16 µM",59.6%
same,"viability, T/C","second compound 0.949 µM, first compound 10 µM",57.5%
same,"viability, T/C","second compound 3 µM, first compound 0.0316 µM",77.7%
same,"viability, T/C","second compound 3 µM, first compound 0.1 µM",74.8%
same,"viability, T/C","second compound 3 µM, first compound 0.316 µM",69.9%
same,"viability, T/C","second compound 3 µM, first compound 1 µM",58.8%
same,"viability, T/C","second compound 3 µM, first compound 3.16 µM",54.4%
same,"viability, T/C","second compound 3 µM, first compound 10 µM",53.6%
same,"viability, T/C","second compound 9.49 µM, first compound 0.0316 µM",71.6%
same,"viability, T/C","second compound 9.49 µM, first compound 0.1 µM",72.4%
same,"viability, T/C","second compound 9.49 µM, first compound 0.316 µM",65.5%
same,"viability, T/C","second compound 9.49 µM, first compound 1 µM",51.2%
same,"viability, T/C","second compound 9.49 µM, first compound 3.16 µM",47.5%
same,"viability, T/C","second compound 9.49 µM, first compound 10 µM",52.8%
same,"viability, T/C","second compound 30 µM, first compound 0.0316 µM",60%
same,"viability, T/C","second compound 30 µM, first compound 0.1 µM",58.4%
same,"viability, T/C","second compound 30 µM, first compound 0.316 µM",54.6%
same,"viability, T/C","second compound 30 µM, first compound 1 µM",36.1%
same,"viability, T/C","second compound 30 µM, first compound 3.16 µM",35.7%
same,"viability, T/C","second compound 30 µM, first compound 10 µM",42.6%
